The values that follow come from PubChem BioAssay (NCI).

The structures appear in SMILES notation.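 All cell lines were grown in 96-well plates and treated with compound for 48 hours. At the GI50, growth is halved. Definition used: TGI = concentration required for complete inhibition of growth.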

Test systems include SK-OV-3 ovarian; RXF 393 renal; ACHN renal; HCC-2998 colon; NCI-H522 lung; RPMI-8226 leukemia; KM12 colon; A498 renal; SN12C renal; OVCAR-4 ovarian.
Assay in all cases: NCI anticancer screen, dose series, 48 h

For `O=C(/C=C\c1cccc([N+](=O)[O-])c1)/C=C/c1cccc([N+](=O)[O-])c1`, the GI50 was 20 µM in the test on SK-OV-3 ovarian; 2.55 µM with RXF 393 renal; 4.47 µM with ACHN renal; 2.6 µM in the test with HCC-2998 colon; 2.79 µM in the test on NCI-H522 lung; 0.43 µM in the test on RPMI-8226 leukemia. The GI50 in the test with KM12 colon was 1.73 µM; in the test on A498 renal it was more than 100 µM; in the test with SN12C renal, 67 µM; in the test with OVCAR-4 ovarian, more than 100 µM. In addition, the TGI with SK-OV-3 ovarian was more than 100 µM; in the test with RXF 393 renal, 6.57 µM; in the test on ACHN renal, more than 100 µM; in the test on HCC-2998 colon, 6.9 µM; in the test on NCI-H522 lung, 10.9 µM; in the test on RPMI-8226 leukemia, 1.6 µM. Also, the TGI is 3.3 µM in the test on KM12 colon, more than 100 µM in the test with A498 renal, more than 100 µM in the test with SN12C renal and more than 100 µM in the test on OVCAR-4 ovarian.
Turning to `O=C1OC(=O)C(=C\c2ccc3c(c2)OCO3)/C1=C/c1ccc2c(c1)OCO2`, the TGI is more than 100 µM with SK-OV-3 ovarian; more than 100 µM in the test on RXF 393 renal; more than 100 µM in the test with ACHN renal; more than 100 µM in the test on HCC-2998 colon; more than 100 µM in the test with NCI-H522 lung; 97.2 µM in the test on RPMI-8226 leukemia. Further, the TGI in the test with KM12 colon, in the test on A498 renal, in the test on SN12C renal and in the test on OVCAR-4 ovarian was more than 100 µM each time.
As to `O=C(Nc1ccc(OCc2nnc(-c3ccc(Cl)cc3)o2)c(F)c1)Nc1ccc(Cl)c(C(F)(F)F)c1`, the GI50 was 3.3 µM in the test with SK-OV-3 ovarian; 2.6 µM with RXF 393 renal; 2.11 µM with ACHN renal; 3.01 µM with HCC-2998 colon; 2.27 µM in the test on NCI-H522 lung; 1.82 µM in the test on RPMI-8226 leukemia. Moreover, the GI50 in the test with KM12 colon was 1.71 µM; in the test on A498 renal it was 1.18 µM; in the test with SN12C renal, 2.02 µM; in the test with OVCAR-4 ovarian, 2.02 µM. Further, the TGI is 12.5 µM in the test with SK-OV-3 ovarian; 7.76 µM with RXF 393 renal; 8.52 µM in the test on ACHN renal; 7.98 µM in the test with HCC-2998 colon; 7.04 µM in the test on NCI-H522 lung; 8.09 µM in the test with RPMI-8226 leukemia. The TGI in the test on KM12 colon is 4.96 µM; in the test on A498 renal it was 7.43 µM; with SN12C renal, 7.91 µM; with OVCAR-4 ovarian, 7.59 µM.
As to `O=C1CC(c2c[nH]c3ccccc23)C(=O)N1` (configuration not stated), the TGI with SK-OV-3 ovarian, in the test with RXF 393 renal, in the test with ACHN renal, in the test on HCC-2998 colon, in the test on RPMI-8226 leukemia and in the test with KM12 colon was more than 100 µM throughout. Besides, the TGI in the test on A498 renal and in the test on OVCAR-4 ovarian was more than 100 µM each time.
`Cc1cc(S(=O)(=O)/N=C(/N)Nc2ccccc2O)c(SCc2ccccc2)cc1Cl`: the GI50 in the test with RXF 393 renal is 12.1 µM; in the test on ACHN renal it was 13 µM; in the test on HCC-2998 colon, 14.5 µM; in the test with NCI-H522 lung, 9.68 µM; in the test with RPMI-8226 leukemia it was 11.4 µM; in the test on KM12 colon, 12.6 µM. The GI50 with A498 renal is 21.2 µM; in the test with SN12C renal, 14.3 µM; in the test with OVCAR-4 ovarian it was 11.4 µM. Besides, the TGI in the test with RXF 393 renal amounted to 27.9 µM; in the test on ACHN renal it was 27.4 µM; in the test on HCC-2998 colon, 29.7 µM; in the test on NCI-H522 lung, 27.1 µM; in the test on RPMI-8226 leukemia it was 52.3 µM; with KM12 colon it was 32.5 µM. Moreover, the results for the TGI with A498 renal, in the test with SN12C renal and in the test with OVCAR-4 ovarian were 39.1 µM, 30.4 µM and 34.9 µM, respectively.
For the compound `O=[N+]([O-])c1ccc(C=Cc2ccccc2)cc1.[C-]#[O+].[C-]#[O+].[C-]#[O+].[Cr]`, the GI50 in the test with SK-OV-3 ovarian is 22.9 µM; in the test on RXF 393 renal it was 11.8 µM; with ACHN renal, 18.5 µM; with HCC-2998 colon it was more than 100 µM; in the test with NCI-H522 lung it was 3.85 µM; with KM12 colon, 13.7 µM. The GI50 is 7.53 µM in the test on A498 renal, 10.1 µM with SN12C renal and 8.93 µM in the test on OVCAR-4 ovarian. Moreover, the TGI in the test on SK-OV-3 ovarian, in the test with RXF 393 renal, in the test with ACHN renal, with HCC-2998 colon, in the test on NCI-H522 lung and in the test with KM12 colon was more than 100 µM throughout. For the same compound, the TGI in the test on A498 renal, in the test with SN12C renal and in the test with OVCAR-4 ovarian was more than 100 µM throughout.
With `COc1cc(C(=O)C/C(CCC(=O)Nc2ccccc2[N+](=O)[O-])=N\NC(N)=O)ccc1O`, the TGI with SK-OV-3 ovarian, with RXF 393 renal, in the test with ACHN renal, with HCC-2998 colon, in the test with NCI-H522 lung and in the test on RPMI-8226 leukemia was more than 100 µM in each case. For the same compound, the TGI with KM12 colon, in the test on A498 renal and with SN12C renal was more than 100 µM throughout.
Turning to `Cc1c(/C=N/N=C/c2[nH]c(C(=O)OC(C)(C)C)c(C)c2C)[nH]c(C(=O)OC(C)(C)C)c1C`, the TGI in the test on SK-OV-3 ovarian, with RXF 393 renal, in the test on HCC-2998 colon, in the test on NCI-H522 lung, in the test with RPMI-8226 leukemia and in the test with KM12 colon was more than 100 µM in each case. Besides, the TGI in the test on A498 renal, in the test on SN12C renal and in the test with OVCAR-4 ovarian was more than 100 µM each time.
With `C1CCC([PH+](C2CCCCC2)C2CCCCC2[PH+](C2CCCCC2)C2CCCCC2)CC1.[Au].[CH-]1CCCCC1CC1CCCC[N-]1` (configuration not stated), the GI50 was 0.355 µM with SK-OV-3 ovarian; 0.277 µM in the test on RXF 393 renal; 0.902 µM with ACHN renal; 0.404 µM in the test on HCC-2998 colon; 0.29 µM in the test with NCI-H522 lung; 0.186 µM with RPMI-8226 leukemia. In addition, the GI50 was 0.145 µM with A498 renal and 0.285 µM in the test with SN12C renal. The TGI with SK-OV-3 ovarian stood at 1.36 µM; in the test on RXF 393 renal it was 1.12 µM; in the test with ACHN renal, 2.1 µM; in the test with HCC-2998 colon it was 1.49 µM; in the test with NCI-H522 lung, 1.56 µM; with RPMI-8226 leukemia it was 0.944 µM. For the same compound, the TGI in the test on A498 renal came out at 0.673 µM; with SN12C renal, 2.93 µM.
Regarding `CCC(=O)C12OC3OC(C)(C)OC3C1OC(C)(C)O2` (configuration not stated), the TGI in the test with SK-OV-3 ovarian, with RXF 393 renal, with ACHN renal, with HCC-2998 colon, in the test on NCI-H522 lung and in the test with KM12 colon was more than 100 µM each time. Besides, the TGI in the test on A498 renal, in the test on SN12C renal and in the test with OVCAR-4 ovarian was more than 100 µM throughout.
